Reference: patent US8883750B2, “Method of treating diabetes” (Gilead Sciences, Inc., priority 2002, dated 2014)

Key:
[1] = Solubility of ranolazine in aqueous solutions as a function of pH; format: physicochemical
[2] = tested on: chronic angina patients; test: Adverse events in CARISA and MARISA; format: in vivo, human; conditions: for Patients with at least one adverse event: CARISA
Experimental: (§1) The CARISA (Combination Assessment of Ranolazine in Stable Angina) study randomized 823 symptomatic chronic angina patients on diltiazem, atenolol or amlodipine to ranolazine 750 mg bid, 1000 mg bid or placebo in a parallel, double-blind, 12 week study. Modified Bruce treadmill tests were performed at baseline, and after 2, 6, and 12 weeks of treatment at trough and peak plasma levels. The ranolazine formulation used in this study was that shown in Example 10.
(§2) Angina frequency and nitroglycerin consumption were reduced by ranolazine. The ranolazine formulation used in the CARISA and MARISA studies was that shown in Example 10. The most frequently reported adverse events (dizziness constipation and nausea) were generally mild and occurred in fewer than 10% of patients. The potential use of ranolazine in diabetics is of interest because approximately one in four angina patients has diabetes.

[3] = tested on: patients with chronic angina; test: MARISA study: treadmill exercise capacity, ranolazine alone; format: in vivo, human; conditions: N=191
Excerpt: as §2

[4] = tested on: angina patients with diabetes; test: CARISA study: hemoglobin A1c in angina patients with diabetes; format: in vivo, human; conditions: 12 weeks; for Average absolute reduction in HbA1c compared to placebo: all diabetic patients (N=131); for Absolute reduction in HbA1c compared to placebo: diabetic patients on insulin (N=31)
Experimental: HbA1c levels were assayed following a modification of the method of Phillipov (Components of total measurement error for hemoglobin A1c determination. Phillipov, G., et al. Clin. Chem. (2001), 47(10):1851). (see FIG. 1) The […] (Combination Assessment of Ranolazine in Stable Angina) study randomized 823 symptomatic chronic angina patients on diltiazem, atenolol or amlodipine to ranolazine 750 mg bid, 1000 mg bid or placebo in a parallel, double-blind, 12 week study. Modified Bruce treadmill tests were performed at baseline, and after 2, 6, and 12 weeks of treatment at trough and peak plasma levels. The ranolazine formulation used in this study was that shown in Example 10.

[5] = tested on: diabetic patients; test: CARISA study: glucose, triglyceride and cholesterol values of diabetic patients; format: in vivo, human; conditions: for Glucose, change from baseline / Triglycerides, change from baseline: all diabetic patients, mean ± SEM; for Glucose, change from baseline: placebo change 1.2 ± 7.1; for Triglycerides, change from baseline: placebo change 26.3 ± 21.2
Experimental: as §1, with “CARISA” left out

[6] = tested on: symptomatic chronic angina patients; test: CARISA study: modified Bruce treadmill exercise tests and angina, ranolazine added to background anti-anginal therapy; format: in vivo, human; conditions: for Prolongation of exercise duration at trough drug concentrations: Example 10 formulation
Experimental: as §1, §2

[7] = tested on: diabetic patients; test: Open-label long-term ranolazine treatment of MARISA/CARISA diabetic patients; format: in vivo, human
Experimental: Efficacy and tolerability of ranolazine were similar in both diabetic and non-diabetic patients in both MARISA and CARISA. In diabetic patients in CARISA (N=131), ranolazine 750 and 1000 mg bid were associated with a mean absolute reduction in HbA1c of 0.48 percentage points and 0.70 percentage points, respectively, compared to placebo at 12 weeks (each p<0.01). The reductions versus placebo were greater in those patients on insulin (N=31; 0.84 and 1.05 percentage points), on 750 and 1000 mg bid (p<0.02 and p<0.01), respectively. Fasting glucose was not affected by ranolazine in diabetic patients in CARISA, regardless of insulin treatment; one hypoglycemic episode was reported on placebo and one on ranolazine.

[8] = tested on: angina patients; test: Angina clinical trials using ranolazine: blood parameters (summary in background); format: in vivo, human
Excerpt: One compound disclosed therein, (±)-N-(2,6-dimethylphenyl)-4-[2-hydroxy-3-(2-methoxyphenoxy)-propyl]-1-piperazineacetamide (known as ranolazine) is undergoing clinical trials for the treatment of angina. […] Ranolazine was also found to reduce triglyceride levels in non-diabetic patients. Ranolazine was also found to lower glucose plasma levels and, over the long term, total cholesterol levels, while increasing HDL cholesterol levels. Thus, ranolazine provides a method of treating diabetes pre-diabetes, or the non-diabetes condition by reducing the levels of potentially toxic metabolites in blood and/or complications associated with diabetes. Ranolazine also can reduce the number of medications necessary for a patient with both cardiovascular problems and diabetes or pre-diabetes.

[9] = first 12 weeks of treatment, diabetic patients in CARISA
[10] = CARISA, diabetic and non-diabetic patients
[11] = over 3 years of open-label treatment, combined MARISA/CARISA diabetic population

COc1ccccc1OCC(O)CN1CCN(CC(=O)Nc2c(C)cccc2C)CC1 (racemic) [ranolazine, N-(2,6-dimethylphenyl)-4-[2-hydroxy-3-(2-methoxyphenoxy)propyl]-1-piperazineacetamide]
Solubility in aqueous solutions (in words) ([1]; aqueous solutions having a pH above about 6.5): relatively insoluble
USP Solubility Class ([1]; solution pH 4.81): Freely Soluble
USP Solubility Class ([1]; solution pH 4.89): Soluble
USP Solubility Class ([1]; solution pH 4.90): Soluble
USP Solubility Class ([1]; solution pH 5.04): Soluble
USP Solubility Class ([1]; solution pH 5.35): Sparingly Soluble
USP Solubility Class ([1]; solution pH 5.82): Slightly soluble
USP Solubility Class ([1]; solution pH 6.46): Slightly soluble
USP Solubility Class ([1]; solution pH 6.73): Very slightly soluble
USP Solubility Class ([1]; solution pH 7.08): Very slightly soluble
USP Solubility Class ([1]; solution pH 7.59 (unbuffered water)): Very slightly soluble
USP Solubility Class ([1]; solution pH 7.79): Very slightly soluble
USP Solubility Class ([1]; solution pH 12.66): Very slightly soluble
Patients with the most frequently reported adverse events (dizziness constipation and nausea) ([2]; CARISA and MARISA, generally mild): < 10%
Patients with at least one adverse event ([2]; diabetic patients, 750 mg bid (placebo 25%)): 25%
Patients with at least one adverse event ([2]; diabetic patients, 1000 mg bid (placebo 25%)): 34%
Patients with at least one adverse event ([2]; non-diabetic patients, 750 mg bid (placebo 27%)): 33%
Patients with at least one adverse event ([2]; non-diabetic patients, 1000 mg bid (placebo 27%)): 32%
Hypoglycemic episodes reported ([2]; diabetic patients in CARISA (one on placebo)): one
Treadmill exercise capacity [3]: increased
Average absolute reduction in HbA1c compared to placebo ([4]; 750 mg bid, p<0.01): 0.48 percentage points
Absolute reduction in HbA1c compared to placebo ([4]; 750 mg bid, p<0.02): 0.84 percentage points
Absolute reduction in HbA1c compared to placebo ([4]; 750 mg bid, p<0.02, listed as Ranolazine): 0.8 percentage points
Average absolute reduction in HbA1c compared to placebo ([4]; 1000 mg bid, p<0.01): 0.70 percentage points
Absolute reduction in HbA1c compared to placebo ([4]; 1000 mg bid, p<0.01): 1.05 percentage points
Absolute reduction in HbA1c compared to placebo ([4]; 1000 mg bid, p<0.01, listed as Ranolazine): 1.1 percentage points
Glucose, change from baseline ([5]; 750 mg bid, baseline 168 ± 8.0): 8.0 ± 8.8 mg/dL
Triglycerides, change from baseline ([5]; 750 mg bid, baseline 192.0 ± 14.5): 21.2 ± 13.5 mg/dL
Glucose, change from baseline ([5]; 1000 mg bid, baseline 165.2 ± 7.8): 1.7 ± 7.2 mg/dL
Triglycerides, change from baseline ([5]; 1000 mg bid, baseline 196 ± 17.5): -7.3 ± 9.3 mg/dL
Fasting glucose ([5]; diabetic patients in CARISA, regardless of insulin treatment): not affected
HDL/LDL ratio [5, 9]: changed little
Mean increase in HDL cholesterol [5, 9]: up to 5 mg/dL
Mean increase in LDL cholesterol [5, 9]: ≤ 11 mg/dL
Mean increase in total cholesterol [5, 9]: up to 16 mg/dL
Prolongation of exercise duration at trough drug concentrations ([6]; 750 mg bid, angina patients with diabetes): 29 s
Prolongation of exercise duration at trough drug concentrations ([6]; 750 mg bid, non-diabetic angina patients): 22 s
Prolongation of exercise duration at trough drug concentrations ([6]; 1000 mg bid, angina patients with diabetes): 34 s
Prolongation of exercise duration at trough drug concentrations ([6]; 1000 mg bid, non-diabetic angina patients): 21 s
Angina frequency [6, 10]: decreased
Time to angina [6, 10]: increased
Angina frequency ([6]; MARISA and CARISA): reduced
Nitroglycerin consumption ([6]; MARISA and CARISA): reduced
Treadmill exercise capacity ([6]; added to atenolol, diltiazem, or amlodipine, CARISA, N=823): increased
Exercise duration (ED) at trough and peak (in words) ([6]; similarly in diabetic and non-diabetic patients): prolonged
Decrease of HbA1c from baseline ([7]; after 12-24 months of open-label treatment, diabetic patients): 1.1 percentage points
HDL cholesterol [7, 11]: continued to increase
LDL cholesterol [7, 11]: decreased from baseline
Total cholesterol [7, 11]: decreased from baseline
Glucose plasma levels ([8]; angina clinical trials): lower
HDL cholesterol levels ([8]; angina clinical trials): increasing
Hemoglobulin A1 (HbA1c) levels ([8]; diabetic angina patients): reduced
Triglyceride levels ([8]; diabetic angina patients, over the long term): reduced
Triglyceride levels ([8]; non-diabetic patients): reduce
Total cholesterol levels ([8]; over the long term): lower
